Reference: patent publication US6313153A, “Compositions and methods for treating nephritis and inhibiting TGF -β related conditions using pyridylacrylamide derivatives” (Tsumura & Co., priority 1997, dated 2001)

System: anti-GBM nephritic mice
Experiment: anti-GBM nephritic mice: proteinuria, serum cholesterol, blood urea nitrogen and serum creatinine;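 on Proteinuria 10th day: minus not effective plus trend double p<0.05 triple p<0.01 quadruple p<0.001 improvement vs control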;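 on Proteinuria 5th day: minus not effective plus trend double p<0.05 triple p<0.01 quadruple p<0.001 improvement vs control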;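 on Serum Parameter BUN (blood urea nitrogen): minus not effective plus trend double p<0.05 triple p<0.01 quadruple p<0.001 improvement vs control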;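 on Serum Parameter S-Ch (serum cholesterol): minus not effective plus trend double p<0.05 triple p<0.01 quadruple p<0.001 improvement vs control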
Format: in vivo, BALB/c mice
Details: for Total Evaluation: 3 × (number of + in proteinuria) + (number of + in serum parameter); for Proteinuria 5th day: 5th day from intravenous injection of anti-GBM serum; for Proteinuria 5th day / Proteinuria 10th day / Serum Parameter BUN (blood urea nitrogen) / Serum Parameter S-Ch (serum cholesterol) / Serum Parameter S-Cr (serum creatinine): oral; for Proteinuria 10th day: 10th day from intravenous injection of anti-GBM serum; for Serum Parameter BUN (blood urea nitrogen) / Serum Parameter S-Ch (serum cholesterol) / Serum Parameter S-Cr (serum creatinine): 11th day
Procedure: BALB/c mice (5 weeks old, purchased from Nippon Charles Liver) were quarantined and adapted for about 1 week before subjecting to experiments. These mice were divided into several groups for the experiments so that average body weights and standard deviations were almost identical in all groups. Mouse anti-GBM (glomerular basement membrane) nephritis was caused by immunizing the mice with rabbit γ-globulin (1 mg) with Freund's complete adjuvant and intravenously injecting rabbit anti-mouse GBM serum on the fifth day from the immunization. Each compound tested was forcedly orally administered via an oral sonde almost simultaneously with the intravenous injection of the anti-GBM serum. On the 5th and 10th days from the intravenous injection, urine was taken by a plastic metabolic cage and proteinuria was measured (Ohtsuka Tonein TP2). On the 11th day, blood was taken by cutting the carotid and serum cholesterol (S--Ch), blood urea nitrogen (BUN) and serum creatinine (S--Cr) were measured by Toshiba TBA-380 autoanalyzer.

Compound | Total Evaluation | Proteinuria 5th day | Proteinuria 10th day | Serum Parameter BUN (blood urea nitrogen) | Serum Parameter S-Ch (serum cholesterol) | Serum Parameter S-Cr (serum creatinine)
Cl.N#C/C(=C\c1cccnc1)C(=O)NCCc1ccc(O)cc1 [Compound 6, (E)-2-cyano-N-(4-hydroxyphenethyl)-3-(3-pyridyl)-2-propenoic acid amide hydrochloride] | 16 | ++ | +++ | - | + | -
N#C/C(=C\c1cccnc1)C(=O)NCCc1cccc(O)c1 [Compound 8] | 6 | - | ++ | - | - | -
COc1cc(CCN(C)C(=O)/C=C/c2cccnc2)cc(OC)c1OC.Cl [Compound 9, (E)-N-methyl-3-(3-pyridyl)-N-(3,4,5-trimethoxyphenethyl)-2-propenoic acid amide hydrochloride] | 12 | + | ++ | + | + | +
COc1cccc(CCN(C)C(=O)/C=C/c2cccnc2)c1OC [Compound 13] | 13 | + | +++ | + | - | +
COc1ccc(CCN(C)C(=O)/C=C/c2cccnc2)c(OC)c1 [Compound 14] | 7 | - | + | + | + | -
COc1ccc(OC)c(CCN(C)C(=O)/C=C/c2cccnc2)c1 [Compound 15] | 11 | + | + | + | + | +
COc1cc(CCN(C)C(=O)/C=C/c2cccnc2)cc(OC)c1 [Compound 18] | 13 | + | ++ | ++ | ++ | -
COc1ccc(CN(C)C(=O)/C=C/c2cccnc2)cc1OC [Compound 20] | 13 | ++ | + | + | + | ++
CN(CCc1ccc(Cl)c(Cl)c1)C(=O)/C=C/c1cccnc1 [Compound 25] | 13 | + | ++ | + | +++ | +
O=C(/C=C/c1cccnc1)NCCc1ccccc1O [Compound 38] | 19 | ++ | +++ | + | ++ | +
COc1ccc(OC)c(CCNC(=O)/C=C/c2cccnc2)c1 [Compound 39] | 21 | ++ | +++ | ++ | ++ | ++
COc1cccc(CCNC(=O)/C=C/c2cccnc2)c1 [Compound 41] | 8 | + | - | - | +++ | ++
COc1cccc(CNC(=O)/C=C/c2cccnc2)c1 [Compound 42] | 9 | + | + | + | - | ++
O=C(/C=C/c1cccnc1)NCc1ccc(O)cc1 [Compound 45] | 10 | ++ | + | - | + | -
COc1ccc(O)c(CCNC(=O)/C=C/c2cccnc2)c1 [Compound 50] | 18 | ++ | +++ | - | +++ | -
CN(CCc1ccc(-c2ccccc2)cc1)C(=O)/C=C/c1cccnc1 [Compound 52] | 10 | + | + | + | + | ++

Compound | Total Evaluation | Proteinuria 5th day | Proteinuria 10th day | Serum Parameter BUN (blood urea nitrogen) | Serum Parameter S-Ch (serum cholesterol) | Serum Parameter S-Cr (serum creatinine)
CSc1ccc(CCN(C)C(=O)/C=C/c2cccnc2)cc1 [Compound 53] | 6 | - | + | - | - | +++
O=C(/C=C/c1cccnc1)NCCc1ccccc1O [Compound 70, (E)-N-(2-hydroxyphenethyl)-3-(3-pyridyl)-2-propenoic acid amide] | 22 | ++ | +++ | ++ | +++ | ++
O=C(/C=C/c1cccnc1)NCCc1ccc(O)cc1 [Compound 71] | 17 | + | +++ | ++ | - | ++
O=C(/C=C/c1cccnc1)NCCc1cccc(O)c1 [Compound 75] | 19 | ++ | +++ | + | ++ | +
CN(CCc1ccc(O)c(O)c1)C(=O)/C=C/c1cccnc1 [Compound 85, (E)-N-(3,4-dihydroxyphenethyl)-N-methyl-3-(3-pyridyl)-2-propenoic acid amide] | 21 | +++ | +++ | + | ++ | -
CN(CCc1ccc(O)cc1)C(=O)/C=C/c1cccnc1 [Compound 87] | 19 | +++ | + | +++ | ++ | ++
O=C(/C=C/c1cccnc1)NCCc1cc(O)ccc1O [Compound 89] | 15 | ++ | ++ | + | ++ | -
O=C(/C=C/c1cccnc1)NCc1cccc(O)c1 [Compound 90] | 17 | ++ | +++ | + | - | +
O=C(/C=C/c1cccnc1)NCCc1ccc(O)c(O)c1 [Compound 91] | 14 | + | +++ | - | ++ | -
O=C(/C=C(/c1ccccc1)c1cccnc1)NCCc1cccc(O)c1 [Compound 93] | 8 | - | - | +++ | ++ | +++
CCOC(=O)COc1ccc(CN(C)C(=O)/C=C/c2cccnc2)cc1 [Compound 95] | 9 | + | + | ++ | + | -
CCOC(=O)COc1cccc(CCNC(=O)/C=C/c2cccnc2)c1 [Compound 100] | 6 | - | + | + | + | +
CCOC(=O)COc1ccc(CCNC(=O)/C=C/c2cccnc2)cc1 [Compound 101] | 8 | - | ++ | - | - | ++
COC(=O)COc1ccccc1CCNC(=O)/C=C/c1cccnc1 [Compound 102] | 9 | + | ++ | - | - | -
CNC(=O)COc1cccc(CCNC(=O)/C=C/c2cccnc2)c1 [Compound 114, (E)-N-[3-[(methyl-carbamoyl)methoxy]phenethyl]-3-(3-pyridyl)-2-propenoic acid amide] | 24 | +++ | +++ | ++ | +++ | +
NC(=O)COc1cccc(CCNC(=O)/C=C/c2cccnc2)c1 [Compound 115] | 10 | - | + | ++ | ++ | +++
